Experimental data: paper PMC5933457, “Probing biological activity through structural modelling of ligand-receptor interactions of 2,4-disubstituted thiazole retinoids” (Bioorganic & Medicinal Chemistry, 2018)

Experiments:
[1] = target: T1, RARγ ligand-binding domain (GST-RAR-γ-LBD) (Homo sapiens, UniProt P13631); test: LanthaScreen TR-FRET RARγ co-activator (receptor binding) assay; type: biochemical; conditions: for EC50: estimated EC50, TR-FRET co-activator assay, 4 h incubation, read-out: EC50 (95% confidence range) RARγ; for binding-curve upper asymptote (coactivator recruitment), RARγ: in words, Fig. 6C
T1 construct: purchased Invitrogen
T1 sequence (P13631 185-419 limits assumed): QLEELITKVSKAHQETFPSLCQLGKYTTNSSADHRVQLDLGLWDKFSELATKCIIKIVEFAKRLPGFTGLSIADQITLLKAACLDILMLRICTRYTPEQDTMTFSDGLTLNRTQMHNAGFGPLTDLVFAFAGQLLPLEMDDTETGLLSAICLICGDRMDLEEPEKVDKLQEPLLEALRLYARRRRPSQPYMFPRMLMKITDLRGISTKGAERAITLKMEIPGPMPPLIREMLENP
Method: These predictions were tested through a receptor-binding assay for each RAR isotype (Fig. 6), where the assay signal is dependent on two parameters: the binding affinity of ligand to the RAR LBD, and the affinity of the coactivator for the ligand-LBD complex. For this assay, binding curves and variation in level of the upper asymptote can reflect differences in co-activator affinity for the ligand-LBD complex; variation in affinity of ligand for LBD shifts the midpoint (EC50) of the binding curve, whereas changes in the level of the upper asymptote may result from changes in coactivator affinity for the ligand-LBD complex alone, or in combination with changes in affinity for ligand with LBD.[23]
The binding interaction of each retinoid with RARα, β and γ were determined in vitro by time-resolved fluorescence resonance energy transfer (TR-FRET) using the LanthaScreen TR-FRET RARα, RARβ, and RARγ co-activator assays according to the manufacturer’s (Invitrogen™) instructions.[23] This uses a terbium-labeled anti-GST antibody, a fluorescein-labeled co activator peptide, and RARα/β/γ ligand-binding domains (LBD) that are tagged with glutathione-S-transferase (GST) in a homogenous assay format. All experiments were performed in black, 384-well low-volume plates in the dark at RT with a 4 h incubation time. The final assay volume was 20 μL and all dilutions were carried out using TR-FRET assay buffer, with a final DMSO concentration of 1%. A mixture of either 3.5 nM GST-RAR-α-LBD or 2.5 nM GST-RAR-β-LBD or 3 nM GST-RAR-γ-LBD with 62.5 nM Tb-anti GST antibody and 30 μM fluorescein-labeled peptide and retinoid or DMSO control was added to each of the wells. Each ligand assay was performed in duplicate and measured using a PHERAstar FS Microplate Reader (BMG Labtech, Ortenberg, Germany) with instrument settings as described in the manufacturer’s instructions for LanthaScreen assays. The TR-FRET signal was expressed as the ratio of the signals at 520 nm and 490 nm. The data were fitted to a three-parameter ligand-binding curve using SigmaPlot (version 12.5, Systat Software Inc., San Jose CA) and normalized to the lower asymptote of each binding curve. […] Since the assay involves interactions between ligand and LBD, and ligand-dependent interactions between the LBD and fluorescein-labeled co activator, the binding assay data were interpreted by simulating these coupled chemical reactions using the biochemical simulator COPASI version 4.3.[23], [54]
The readout of the Lanthascreen TR-FRET binding assay is based on a Forster resonance energy transfer (FRET) signal generated from the interaction between a terbium-labelled anti-glutathione-S-transferase (GST) antibody and a fluorescein-labelled coactivator peptide. The RAR ligand-binding domain (LBD) is a GST fusion protein and interaction between the LBD and the fluorescein-labelled coactivator peptide is driven by the binding of ligand to the LBD, and detected by the FRET signal from the terbium/fluorescein interaction when the terbium-labelled anti-GST binds the LBD fusion protein. The output of the assay thus relies on two binding interactions: ligand with LBD, and ligand-bound LBD with the coactivator peptide. As both interactions may be affected by the fit of ligand to the binding pocket of the LBD, we used the biochemical pathway simulator COPASI^1 to build a simple model of how the FRET signal output in the assay will vary according to differential changes in the kinetics of the two binding interactions. Reactions were modelled deterministically using mass-action kinetics described by ordinary differential equations (ODE) within COPASI.^1 This model enables us to assess the effect of different rate constants and varying ligand concentration on the formation of the final ternary complex that is the read-out from the Lanthascreen TR-FRET assay.

[2] = test system: TERA2.cl.SP12 embryonal carcinoma stem cells; test: Flow cytometry of cell-surface differentiation markers SSEA-3, TRA-1–60, A2B5; type: cell-based, human; conditions: 10 μM retinoid, 7 days, compared to ATRA and control cultures, Fig. 7A
Description: First, we examined neuronal differentiation in pluripotent TERA2.cl.SP12 human embryonal carcinoma stem cells in response to retinoid treatment. TERA2.cl.SP12 cells have been used in previous studies, [29] to test the ability of synthetic retinoids to induce differentiation along a neuronal or an alternative epithelial pathway at long in vitro timescales of up to three weeks. […] Since the parent carboxylic acid (GZ24) had little activity, the response to GZ22 was a real effect of the ester rather than a result of hydrolysis of the parent ester to the carboxylic acid.
The expression of specific cell surface protein markers (SSEA-3, TRA-1–60, A2B5) on TERA2.cl.SP12 was analyzed using flow cytometry as described previously.[53] Briefly, TERA2.cl.SP12 cells, 2 × 10^5 per 25 cm^2 flask, were seeded 12–24 h before treatment with 10 μM retinoid for 7 days. The primary antibodies used were SSEA-3 (diluted 1:10, University of Iowa Hybridoma Bank), TRA-1–60 (diluted 1:50, Abcam) and neural cell marker A2B5 (diluted 1:40, R&D Systems). Labeled cells were analyzed in a Guave EasyCyte Plus System (Millipore) flow cytometer and thresholds determining the numbers of positively expressing cells were set against the negative control antibody, P3X.

In the case of `CCOCCOc1nc(-c2ccc(C(=O)O)cc2)sc1C` [GZ18], the EC50 [1] is reported as 141 nM, the “binding-curve upper asymptote (coactivator recruitment), RARγ” value [1] is reported as “very low binding-curve upper asymptotes” and the “proportion of cells expressing differentiation markers SSEA-3, TRA-1–60, A2B5” value [2] is reported as “very little activity”.

`CCOC(=O)c1ccc(-c2nc(-c3ccccc3)c(C)s2)cc1` [GZ22] was tested, and the EC50 [1] was 383 nM and the “proportion of cells expressing differentiation markers SSEA-3, TRA-1–60, A2B5” value [2] was “Intermediate responses”.

`Cc1sc(-c2ccc(C(=O)O)cc2)nc1-c1ccc2c(c1)C(C)(C)CCC2(C)C` [GZ25] was tested, and the EC50 [1] was 98.9 nM, the “binding-curve upper asymptote (coactivator recruitment), RARγ” value [1] was “high” and the “proportion of cells expressing differentiation markers SSEA-3, TRA-1–60, A2B5” value [2] was “most potent, even compared to ATRA”.
